Values after ≈ are worked out from the molar mass of the structure shown.

Broadly, the MIC is the least concentration at which growth counts as inhibited. A high value points to a less susceptible organism.

Holding throughout (test): ≥ marks a high value that may be exact or a test limit, other limits are often not marked, values filed in µg/mL are converted to µM
The test system of assay [1] is Staphylococcus aureus 5118.
Assay [2] deals with Staphylococcus aureus E4049.
Assay [3] deals with Staphylococcus aureus ATCC 9144.
In assay [4] the test system is Candida albicans ATCC 10231.
The test system of assay [5] is Candida krusei CBS 573.
Assay [6] relates to Candida parapsilosis CBS 604.
For assay [7], the system named is Saccharomyces cerevisiae SZMC 0644.
The subject of assay [8] is Acinetobacter baumannii.
Assay [9] relates to Klebsiella pneumoniae ATCC BAA-2146.
For assay [10], the system named is Pseudomonas aeruginosa ATCC 27853.
Assay [11] relates to Candida albicans ATCC 90028.
Assay [12] deals with Bacillus subtilis ATCC 6051.
For assay [13], the system named is Klebsiella pneumoniae ATCC 700603.
Assay [14] has as its system Acinetobacter baumannii ATCC 19606.
Assay [15] concerns Pseudomonas aeruginosa.
Assay [16] deals with Klebsiella pneumoniae ATCC 13883.
Assay [17] concerns Escherichia coli ATCC 25922.
For assay [18], the system named is Klebsiella pneumoniae.
The subject of assay [19] is Staphylococcus aureus ATCC 43300.
Assay [20] relates to Cryptococcus neoformans ATCC 208821.
For assay [21], the system named is Staphylococcus aureus ATCC 29213.
Assay [22] relates to Staphylococcus aureus ATCC 33591.
In assay [23] the test system is Enterococcus faecalis ATCC BAA-2365.
Assay [24] concerns Escherichia coli ATCC BAA-2452.
The test system of assay [25] is Staphylococcus epidermidis ATCC 12228.
Assay [26] deals with Pseudomonas aeruginosa ATCC BAA-2114.
The subject of assay [27] is Enterococcus faecalis ATCC 19433.
Assay [28] relates to Staphylococcus aureus ATCC BAA-41.
Assay [29] concerns Enterococcus faecalis ATCC BAA-2316.

Consider `CC[C@H](C)[C@H](NC(=O)[C@H](CC(C)C)NC(=O)CNC(=O)[C@H](CCSC)NC(=O)[C@@H](NC(=O)[C@H](CC(C)C)NC(=O)[C@H](CCC(N)=O)NC(=O)CNC(=O)[C@H](Cc1ccccc1)NC(=O)[C@@H](NC(=O)[C@@H](N)CO)C(C)C)C(C)C)C(=O)N[C@@H](CC(C)C)C(=O)N[C@@H](CO)C(=O)N[C@@H](CO)C(=O)N[C@H](C(=O)N[C@@H](Cc1ccccc1)C(=O)N[C@@H](Cc1ccc(O)cc1)C(=O)N[C@@H](CC(N)=O)C(=O)N[C@@H](CC(=O)O)C(=O)N[C@@H](CC(=O)O)C(=O)O)C(C)C` [SVFGQLVMGLILSSVFYNDD], for which the minimum inhibitory concentration (MIC) in assay [1] was 1.81 µM (≈ 4 µg/mL); in assay [2], at least 250 µM; in [3], 15.9 µM (≈ 35 µg/mL).

`CC[C@H](C)[C@H](NC(=O)[C@@H]1CSSC[C@H](NC(=O)[C@H](CCCCN)NC(=O)CN)C(=O)N[C@@H](CCC(=O)O)C(=O)N[C@@H](Cc2c[nH]c3ccccc23)C(=O)N[C@@H](CCC(N)=O)C(=O)NCC(=O)NCC(=O)N[C@@H](CCC(N)=O)C(=O)N[C@@H](CC(C)C)C(=O)N[C@@H](CC(N)=O)C(=O)N1)C(=O)N[C@@H](C)C(=O)N[C@H](C(=O)O)[C@@H](C)O` [GKCEWQGGQLNCIAT]: the MIC in assay [4] is above 62.2 µM; in assay [5], at least 62.2 µM; in [6], at least 62.2 µM; in assay [7], at least 62.2 µM.

As to `CC[C@H](C)[C@@H]1NC(=O)CNC(=O)[C@H](CCCN=C(N)N)NC(=O)[C@H](Cc2ccc(O)cc2)NC(=O)[C@@H](NC(=O)[C@@H](NC(=O)[C@H](CCCN=C(N)N)NC(=O)[C@H](Cc2ccccc2)NC(=O)[C@H](C)NC(=O)[C@H](Cc2c[nH]c3ccccc23)NC(=O)[C@@H](N)CCCCN)C(C)C)CSSC[C@@H](C(=O)N[C@@H](Cc2ccc(O)cc2)C(=O)N[C@@H](CCCN=C(N)N)C(=O)N[C@@H](CCCN=C(N)N)C(=O)N[C@@H](CO)C(=O)N[C@@H](CCCN=C(N)N)C(=O)O)NC1=O` [KWAFRVCYRGICYRRSR], the MIC is 7.21 µM (≈ 16 µg/mL) in assay [8]; 7.21 µM (≈ 16 µg/mL) in [9]; above 7.21 µM in [10]; 7.21 µM (≈ 16 µg/mL) in assay [11]; 0.225 µM (≈ 0.5 µg/mL) in assay [12]; 7.21 µM (≈ 16 µg/mL) in [13]. For the same compound, the MIC in assay [14] was above 7.21 µM; in [15], above 7.21 µM; in [16], 7.21 µM (≈ 16 µg/mL); in [17], 1.8 µM (≈ 4 µg/mL); in assay [18], above 7.21 µM; in assay [19], above 7.21 µM. The same compound yielded a minimum inhibitory concentration (MIC) in assay [20] of 1.8 µM (≈ 4 µg/mL).

`CC[C@H](C)[C@H](NC(=O)[C@H](CCCN=C(N)N)NC(=O)[C@H](CCC(=O)O)NC(=O)[C@@H](NC(=O)[C@@H](NC(=O)[C@H](CCCN=C(N)N)NC(=O)[C@H](CCCCN)NC(=O)[C@H](Cc1ccccc1)NC(=O)[C@H](CCC(=O)O)NC(=O)[C@H](CCCCN)NC(=O)CNC(=O)[C@@H](NC(=O)[C@@H](NC(=O)[C@@H]1CCCN1C(=O)[C@H](CO)NC(=O)[C@H](CC(C)C)NC(=O)[C@H](CCCCN)NC(=O)[C@H](CCCCN)NC(=O)[C@H](Cc1ccccc1)NC(=O)[C@H](CC(C)C)NC(=O)[C@H](CCCCN)NC(=O)[C@H](CCCCN)NC(=O)[C@H](Cc1ccccc1)NC(=O)[C@@H](N)CCCCN)C(C)C)[C@@H](C)CC)[C@@H](C)CC)C(C)C)C(=O)N[C@@H](CCCCN)C(=O)N[C@@H](CCCN=C(N)N)C(=O)N[C@@H](Cc1ccccc1)C(=O)N[C@@H](CC(C)C)C(=O)N[C@@H](CCCN=C(N)N)C(=O)O` [KFKKLFKKLSPVIGKEFKRIVERIKRFLR]: the MIC is 20 µM (≈ 72.7 µg/mL) in assay [21]; 10 µM (≈ 36.3 µg/mL) in assay [22]; 20 µM (≈ 72.7 µg/mL) in assay [10]; 5 µM (≈ 18.2 µg/mL) in assay [23]; 10 µM (≈ 36.3 µg/mL) in [24]; 10 µM (≈ 36.3 µg/mL) in assay [25]. In addition, the MIC is 10 µM (≈ 36.3 µg/mL) in assay [14]; 25 µM (≈ 90.8 µg/mL) in [26]; 2.5 µM (≈ 9.08 µg/mL) in [16]; 10 µM (≈ 36.3 µg/mL) in assay [17]; 10 µM (≈ 36.3 µg/mL) in assay [19]; 15 µM (≈ 54.5 µg/mL) in assay [27]. Further, the minimal inhibitory concentration (MIC) is 10 µM (≈ 36.3 µg/mL) in assay [28] and 5 µM (≈ 18.2 µg/mL) in [29].

Source of the values: DBAASP.
